From ChEMBL document CHEMBL3272040, “3-Cyanocephems, and carbon-3 heterocyclic-substituted cephems via 1,3-dipolar cycloadditions” (1976)
In brackets after ≈: the same amount, converted by molar mass.

How the values were obtained:
[1] = tested on: Staphylococcus aureus; assay: Antimicrobial activity against Staphylococcus aureus MB-2865; assay type: functional
[2] = tested on: Streptococcus pyogenes; assay: Antimicrobial activity against Streptococcus pyogenes MB-3124; assay type: functional

MIC [1] [mg/L] | MIC [2] [mg/L] | Structure (SMILES)
0.78 (≈ 1.69 µM) | < 0.39 | COC(=O)c1cc(C2=C(C(=O)O)N3C(=O)[C@@H](NC(=O)Cc4cccs4)[C@H]3SC2)nn1C
3.12 (≈ 6.96 µM) | < 0.39 | COC(=O)c1cc(C2=C(C(=O)O)N3C(=O)[C@@H](NC(=O)Cc4cccs4)[C@H]3SC2)n[nH]1
 | < 0.39 | COC(=O)c1cc(C2=C(C(=O)OC(c3ccccc3)c3ccccc3)N3C(=O)[C@@H](NC(=O)Cc4cccs4)[C@H]3SC2)nn1C
 | < 0.39 | COC(=O)CO/N=C/C1=C(C(=O)OC(c2ccccc2)c2ccccc2)N2C(=O)[C@@H](NC(=O)Cc3cccs3)[C@H]2SC1
12.5 (≈ 28.4 µM) | < 0.39 | COC(=O)CO/N=C/C1=C(C(=O)O)N2C(=O)[C@@H](NC(=O)Cc3cccs3)[C@H]2SC1
 | < 0.39 | [N-]=[N+]=CC1=C(C(=O)OC(c2ccccc2)c2ccccc2)N2C(=O)[C@@H](NC(=O)Cc3cccs3)[C@H]2SC1
< 0.39 | < 0.39 | Cc1ccc(S(=O)(=O)N(C)/N=C/C2=C(C(=O)O)N3C(=O)[C@@H](NC(=O)Cc4cccs4)[C@H]3SC2)cc1
 | < 0.39 | CC(=O)N/N=C/C1=C(C(=O)OC(c2ccccc2)c2ccccc2)N2C(=O)[C@@H](NC(=O)Cc3cccs3)[C@H]2SC1
 | < 0.39 | Cc1ccc(S(=O)(=O)N/N=C/C2=C(C(=O)OC(c3ccccc3)c3ccccc3)N3C(=O)[C@@H](NC(=O)Cc4cccs4)[C@H]3SC2)cc1
0.78 (≈ 2.23 µM) | < 0.39 | N#CC1=C(C(=O)O)N2C(=O)[C@@H](NC(=O)Cc3cccs3)[C@H]2SC1
 | < 0.39 | COC(=O)C1=C(c2cc(C(=O)OC)n(C)n2)CS[C@@H]2[C@H](NC(=O)Cc3cccs3)C(=O)N12
 | < 0.39 | O=C(O)CO/N=C/C1=C(C(=O)OC(c2ccccc2)c2ccccc2)N2C(=O)[C@@H](NC(=O)Cc3cccs3)[C@H]2SC1
 | < 0.39 | CCOC(=O)C1CC(C2=C(C(=O)OC(c3ccccc3)c3ccccc3)N3C(=O)[C@@H](NC(=O)Cc4cccs4)[C@H]3SC2)=NN1 (stereo partly specified)
 | < 0.39 | COC(=O)c1cc(C2=C(C(=O)OC(c3ccccc3)c3ccccc3)N3C(=O)[C@@H](NC(=O)Cc4cccs4)[C@H]3SC2)n[nH]1
 | < 0.39 | O=C(Cc1cccs1)N[C@@H]1C(=O)N2C(C(=O)OC(c3ccccc3)c3ccccc3)=C(/C=N/O)CS[C@H]12
 | < 0.39 | O=C(Cc1cccs1)N[C@@H]1C(=O)N2C(C(=O)OC(c3ccccc3)c3ccccc3)=C(/C=N/Nc3ccc([N+](=O)[O-])cc3)CS[C@H]12
 | < 0.39 | O=C(Cc1cccs1)N[C@@H]1C(=O)N2C(C(=O)OC(c3ccccc3)c3ccccc3)=C(/C=N/OCc3ccccc3)CS[C@H]12

MIC [1] [mg/L] | MIC [2] [mg/L] | Structure (SMILES)
 | < 0.39 | COC(=O)c1[nH]nc(C2=C(C(=O)OC(c3ccccc3)c3ccccc3)N3C(=O)[C@@H](NC(=O)Cc4cccs4)[C@H]3SC2)c1C(=O)OC
< 0.39 | < 0.39 | O=C(Cc1cccs1)N[C@@H]1C(=O)N2C(C(=O)O)=C(/C=N/O)CS[C@H]12
 | < 0.39 | O=C(Cc1cccs1)N[C@@H]1C(=O)N2C(C(=O)OC(c3ccccc3)c3ccccc3)=C(C#[N+][O-])CS[C@H]12
 | < 0.39 | O=C(Cc1cccs1)N[C@@H]1C(=O)N2C(C(=O)OC(c3ccccc3)c3ccccc3)=C(/C=N/NC(=O)c3ccccc3)CS[C@H]12
 | < 0.39 | COC(=O)C1=C(/C=N/O)CS[C@@H]2[C@H](NC(=O)Cc3cccs3)C(=O)N12
 | < 0.39 | O=C(Cc1cccs1)N[C@@H]1C(=O)N2C(C(=O)OC(c3ccccc3)c3ccccc3)=C(c3cc(-c4ccccc4)on3)CS[C@H]12
 | < 0.39 | O=CC1=C(C(=O)OC(c2ccccc2)c2ccccc2)N2C(=O)[C@@H](NC(=O)Cc3cccs3)[C@H]2SC1
 | < 0.39 | CCOC(=O)N/N=C/C1=C(C(=O)OC(c2ccccc2)c2ccccc2)N2C(=O)[C@@H](NC(=O)Cc3cccs3)[C@H]2SC1
 | < 0.39 | Cc1ccc(S(=O)(=O)[N-]/N=C/C2=C(C(=O)OC(c3ccccc3)c3ccccc3)N3C(=O)[C@@H](NC(=O)Cc4cccs4)[C@H]3SC2)cc1.[Li+]
 | < 0.39 | CO/N=C/C1=C(C(=O)OC(c2ccccc2)c2ccccc2)N2C(=O)[C@@H](NC(=O)Cc3cccs3)[C@H]2SC1
 | < 0.39 | O=C(Cc1cccs1)N[C@@H]1C(=O)N2C(C(=O)OC(c3ccccc3)c3ccccc3)=C(c3nn[nH]c3C(F)(F)F)CS[C@H]12
 | < 0.39 | COC(=O)C1=C(/C=N/N(C)S(=O)(=O)c2ccc(C)cc2)CS[C@@H]2[C@H](NC(=O)Cc3cccs3)C(=O)N12
 | < 0.39 | N#CC1=C(C(=O)OC(c2ccccc2)c2ccccc2)N2C(=O)[C@@H](NC(=O)Cc3cccs3)[C@H]2SC1
 | < 0.39 | COC(=O)CO/N=C/C1=C(C(=O)OC)N2C(=O)[C@@H](NC(=O)Cc3cccs3)[C@H]2SC1
 | < 0.39 | Cc1ccc(S(=O)(=O)N(C)/N=C/C2=C(C(=O)OC(c3ccccc3)c3ccccc3)N3C(=O)[C@@H](NC(=O)Cc4cccs4)[C@H]3SC2)cc1
< 0.39 | < 0.39 | O=C(Cc1cccs1)N[C@@H]1C(=O)N2C(C(=O)O)=C(c3cc(-c4ccccc4)on3)CS[C@H]12
 | < 0.39 | COC(=O)C1=C(c2cc(-c3ccccc3)on2)CS[C@@H]2[C@H](NC(=O)Cc3cccs3)C(=O)N12
